Test results from ChEMBL document CHEMBL1201862, “PubChem BioAssay data set” (2004).
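Five concentrations, 48 hours, 96-well plates. GI50 marks 50% less growth.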 Activity calls are given as the source filed them. Cut-off read from the data, not from the text of the source: active = GI50 up to about 1.1 µM and inactive = higher.

Key:
Assay in all cases: growth of human tumour cells (NCI), 48 h
[1] = test system: 786-0
[2] = test system: ACHN
[3] = test system: CAKI-1
[4] = test system: COLO 205
[5] = test system: EKVX
[6] = test system: HCT-116
[7] = test system: HOP-92
[8] = test system: HT-29
[9] = test system: KM12
[10] = test system: MCF7
[11] = test system: NCI-H522
[12] = test system: OVCAR-3
[13] = test system: OVCAR-4
[14] = test system: RXF 393
[15] = test system: SK-MEL-5
[16] = test system: SK-OV-3
[17] = test system: SN12C
[18] = test system: SNB-19
[19] = test system: SNB-75

| SMILES | GI50 [1] | GI50 [2] | GI50 [3] | GI50 [4] | GI50 [5] | GI50 [6] | GI50 [7] | GI50 [8] | GI50 [9] | GI50 [10] | GI50 [11] | GI50 [12] | GI50 [13] | GI50 [14] | GI50 [15] | GI50 [16] | GI50 [17] | GI50 [18] | GI50 [19] |
| --- | --- | --- | --- | --- | --- | --- | --- | --- | --- | --- | --- | --- | --- | --- | --- | --- | --- | --- | --- |
| Cn1c2c(c3ccccc31)CCN1C(=O)C34CCCC3CC21S4 (stereo not given) | > 100 µM (inactive) | > 100 µM (inactive) | > 100 µM (inactive) | > 100 µM (inactive) | > 100 µM (inactive) | > 100 µM (inactive) | > 100 µM (inactive) | > 100 µM (inactive) | > 100 µM (inactive) | > 100 µM (inactive) | > 100 µM (inactive) | > 100 µM (inactive) | > 100 µM (inactive) | > 100 µM (inactive) | 76.2 µM (inactive) | > 100 µM (inactive) | > 100 µM (inactive) | > 100 µM (inactive) | – |
| COc1nc2ccc(Cl)c(C(O)c3ccccc3)c2nc1OC (stereo not given) | – | 30.2 µM (inactive) | 12.1 µM (inactive) | 18.1 µM (inactive) | 18.2 µM (inactive) | 16.2 µM (inactive) | 12.9 µM (inactive) | 29.9 µM (inactive) | 29.9 µM (inactive) | 29.7 µM (inactive) | 15.7 µM (inactive) | 24.1 µM (inactive) | 26.6 µM (inactive) | 14.3 µM (inactive) | 15.6 µM (inactive) | – | 19.7 µM (inactive) | 24.9 µM (inactive) | 33 µM (inactive) |
| C=C1CC(COc2cc(=O)oc3ccccc23)(c2ccccc2)OC1=O (stereo not given) | 1.51 µM (inactive) | 2.5 µM (inactive) | 1.3 µM (inactive) | 1.51 µM (inactive) | 6.27 µM (inactive) | 1.46 µM (inactive) | 1.01 µM (active) | 1.38 µM (inactive) | 3.34 µM (inactive) | 0.413 µM (active) | 1.56 µM (inactive) | 1.37 µM (inactive) | 2.12 µM (inactive) | – | 1.71 µM (inactive) | 3.27 µM (inactive) | 1.91 µM (inactive) | 16.4 µM (inactive) | 4.25 µM (inactive) |
| Cc1ccc(C)c2c1C/C(=C\c1ccccc1C(=O)O)C2=O | > 100 µM (inactive) | > 100 µM (inactive) | > 100 µM (inactive) | > 100 µM (inactive) | 45.7 µM (inactive) | > 100 µM (inactive) | > 100 µM (inactive) | > 100 µM (inactive) | > 100 µM (inactive) | > 100 µM (inactive) | > 100 µM (inactive) | 54.2 µM (inactive) | 62.7 µM (inactive) | > 100 µM (inactive) | 42.7 µM (inactive) | – | > 100 µM (inactive) | 81.3 µM (inactive) | > 100 µM (inactive) |
| COC(=O)C1=C(C)NC(C)=C(C(=O)OC)C1c1cccc(N=O)c1 | 16.7 µM (inactive) | 14.5 µM (inactive) | 10.6 µM (inactive) | 18.5 µM (inactive) | 20.1 µM (inactive) | 11 µM (inactive) | 7.69 µM (inactive) | 16.3 µM (inactive) | 16.6 µM (inactive) | 18.4 µM (inactive) | 3.18 µM (inactive) | 15.7 µM (inactive) | 13.1 µM (inactive) | 13.3 µM (inactive) | 16.3 µM (inactive) | 25.4 µM (inactive) | 18.8 µM (inactive) | 75.5 µM (inactive) | – |
| N#CCC1COc2ccccc2O1 (stereo not given) | > 10 µM (inactive) | > 10 µM (inactive) | > 10 µM (inactive) | > 10 µM (inactive) | – | > 10 µM (inactive) | > 10 µM (inactive) | > 10 µM (inactive) | > 10 µM (inactive) | > 10 µM (inactive) | > 10 µM (inactive) | – | > 10 µM (inactive) | – | > 10 µM (inactive) | > 10 µM (inactive) | > 10 µM (inactive) | > 10 µM (inactive) | > 10 µM (inactive) |
| Nc1nc(Cl)cc(NCC2(CO)CC(=O)C2)n1 | > 100 µM (inactive) | > 100 µM (inactive) | > 100 µM (inactive) | > 100 µM (inactive) | 98.6 µM (inactive) | > 100 µM (inactive) | > 100 µM (inactive) | > 100 µM (inactive) | > 100 µM (inactive) | > 100 µM (inactive) | > 100 µM (inactive) | > 100 µM (inactive) | > 100 µM (inactive) | > 100 µM (inactive) | > 100 µM (inactive) | > 100 µM (inactive) | > 100 µM (inactive) | > 100 µM (inactive) | – |
| COc1cc(C2S/C(=C/c3ccccc3)C(=O)N2c2cc(Cl)ccc2Cl)cc(OC)c1OC (stereo not given) | 18.8 µM (inactive) | 35.8 µM (inactive) | 39.2 µM (inactive) | 55.3 µM (inactive) | 24.2 µM (inactive) | 12.5 µM (inactive) | 51.2 µM (inactive) | 47.1 µM (inactive) | 19 µM (inactive) | 27 µM (inactive) | 21.9 µM (inactive) | 32.3 µM (inactive) | – | 39.4 µM (inactive) | 35.8 µM (inactive) | > 100 µM (inactive) | 45.9 µM (inactive) | 71.9 µM (inactive) | – |
